In PubChem BioAssay AID256 (DTP/NCI, 2004) one finds T/C data, which are given here for 18 molecules.

Molecules are shown by their SMILES. “And” between values parts separate entries of the source, which are not always exact repeats. Identical values can stand only once. Inconclusive results and toxic doses are left out.

The subject of the experiment is CD2F1 mice, L1210 leukemia ip, survival T/C. The experiment is described as follows: NCI In Vivo Anticancer Drug Screen. Data for tumor model L1210 Leukemia (intraperitoneal) in CD2F1 (CDF1) mice. Particulars: higher = longer survival. The procedure, abridged: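 Vehicle-treated tumor-bearing mice served as controls (C) for compound-treated mice (T). Reported figure is T divided by C.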

The mark [1] stands for this setting: endpoint: mean survival time, dose: 100.0 mg/kg/injection, schedule: Q04DX002 (ip), vehicle: saline with Tween-80.
Setting [2] is: endpoint: mean survival time, dose: 200.0 mg/kg/injection, schedule: Q04DX002 (ip), vehicle: saline with Tween-80.
Where [3] appears, read: endpoint: mean survival time, dose: 50.0 mg/kg/injection, schedule: Q04DX003 (ip), vehicle: saline.
Setting [4] is: endpoint: mean survival time, dose: 100.0 mg/kg/injection, schedule: Q04DX003 (ip), vehicle: saline.
The mark [5] stands for this setting: endpoint: mean survival time, dose: 200.0 mg/kg/injection, schedule: Q04DX003 (ip), vehicle: saline.
Where [6] appears, read: endpoint: mean survival time, dose: 400.0 mg/kg/injection, schedule: Q04DX003 (ip), vehicle: saline.
Where [7] appears, read: endpoint: mean survival time, dose: 75.0 mg/kg/injection, schedule: Q01DX001 (ip), vehicle: saline.
Setting [8] is: endpoint: mean survival time, dose: 150.0 mg/kg/injection, schedule: Q01DX001 (ip), vehicle: saline.
Where [9] appears, read: endpoint: mean survival time, dose: 300.0 mg/kg/injection, schedule: Q01DX001 (ip), vehicle: saline.
The mark [10] stands for this setting: endpoint: mean survival time, dose: 25.0 mg/kg/injection, schedule: Q01DX009 (ip), vehicle: saline with Tween-80.
The mark [11] stands for this setting: endpoint: mean survival time, dose: 50.0 mg/kg/injection, schedule: Q01DX009 (ip), vehicle: saline with Tween-80.
Where [12] appears, read: endpoint: mean survival time, dose: 100.0 mg/kg/injection, schedule: Q01DX009 (ip), vehicle: saline with Tween-80.
[13] abbreviates: endpoint: mean survival time, dose: 100.0 mg/kg/injection, schedule: Q04DX003 (ip), vehicle: saline with Tween-80.
[14] abbreviates: endpoint: mean survival time, dose: 200.0 mg/kg/injection, schedule: Q04DX003 (ip), vehicle: saline with Tween-80.
[15] abbreviates: endpoint: mean survival time, dose: 400.0 mg/kg/injection, schedule: Q04DX003 (ip), vehicle: saline with Tween-80.
Where [16] appears, read: endpoint: mean survival time, dose: 100.0 mg/kg/injection, schedule: Q01DX001 (ip), vehicle: saline with Tween-80.

As for `O=C(Nc1cccnc1)c1ccc([N+](=O)[O-])s1`, the T/C (endpoint: mean survival time, dose: 50.0 mg/kg/injection, schedule: Q01DX005 (ip), vehicle: saline + alcohol) is 111 % of control; the T/C (endpoint: mean survival time, dose: 50.0 mg/kg/injection, schedule: Q01DX005 (ip), vehicle: saline) is 110 % of control; the T/C (endpoint: mean survival time, dose: 100.0 mg/kg/injection, schedule: Q01DX005 (ip), vehicle: saline + alcohol) was 121 % of control; the T/C (endpoint: mean survival time, dose: 100.0 mg/kg/injection, schedule: Q01DX005 (ip), vehicle: saline) was 160 % of control; the T/C (endpoint: mean survival time, dose: 200.0 mg/kg/injection, schedule: Q01DX005 (ip), vehicle: saline + alcohol) was 107 % of control; the T/C (endpoint: mean survival time, dose: 200.0 mg/kg/injection, schedule: Q01DX005 (ip), vehicle: saline) was 122 % of control. Also, the T/C by setting is: (endpoint: median survival time, dose: 25.0 mg/kg/injection, schedule: Q01DX005 (ip), vehicle: saline) 119 % of control; (endpoint: median survival time, dose: 36.0 mg/kg/injection, schedule: Q01DX005 (ip), vehicle: saline) 115 % of control; (endpoint: median survival time, dose: 50.0 mg/kg/injection, schedule: Q01DX005 (ip), vehicle: saline) 116 % of control; (endpoint: median survival time, dose: 60.0 mg/kg/injection, schedule: Q01DX005 (ip), vehicle: saline) 121 % of control.
With `CC1CCCCCCCCCCC12OCCO2` (stereo unspecified), the T/C was 87 % of control under setting [1]; 98 % of control under setting [2]; 106 % of control (endpoint: mean survival time, dose: 400.0 mg/kg/injection, schedule: Q04DX002 (ip), vehicle: saline with Tween-80).
Consider `ClCC[N+]12CC[N+](CCCl)(CC1)C2`, for which the T/C by setting is: (endpoint: mean survival time, dose: 6.25 mg/kg/injection, schedule: Q01DX009 (ip), vehicle: water) 95 % of control and 106 % of control and 109 % of control; (endpoint: mean survival time, dose: 12.5 mg/kg/injection, schedule: Q01DX009 (ip), vehicle: saline) 106 % of control [middle of 4 runs]; (endpoint: mean survival time, dose: 12.5 mg/kg/injection, schedule: Q01DX009 (ip), vehicle: water) 117 % of control and 104 % of control and 108 % of control; (endpoint: mean survival time, dose: 25.0 mg/kg/injection, schedule: Q01DX009 (ip), vehicle: saline) 110 % of control [middle of 4 runs]; (endpoint: mean survival time, dose: 25.0 mg/kg/injection, schedule: Q01DX009 (ip), vehicle: water) 115 % of control and 106 % of control and 109 % of control; (endpoint: mean survival time, dose: 50.0 mg/kg/injection, schedule: Q01DX009 (ip), vehicle: saline) 117 % of control and 102 % of control and 109 % of control. Besides, the T/C was 113 % of control and 119 % of control and 120 % of control (endpoint: mean survival time, dose: 50.0 mg/kg/injection, schedule: Q01DX009 (ip), vehicle: water); 102 % of control under setting [3]; 154 % of control (endpoint: mean survival time, dose: 66.0 mg/kg/injection, schedule: Q01DX009 (ip), vehicle: saline); 116 % of control and 94 % of control (endpoint: mean survival time, dose: 100.0 mg/kg/injection, schedule: Q01DX009 (ip), vehicle: saline); 111 % of control (endpoint: mean survival time, dose: 100.0 mg/kg/injection, schedule: Q01DX009 (ip), vehicle: water); 102 % of control under setting [4]. The T/C is, setting by setting: (endpoint: mean survival time, dose: 150.0 mg/kg/injection, schedule: Q01DX009 (ip), vehicle: saline) 190 % of control; (endpoint: mean survival time, dose: 150.0 mg/kg/injection, schedule: Q04DX003 (ip), vehicle: saline) 118 % of control; (endpoint: mean survival time, dose: 200.0 mg/kg/injection, schedule: Q01DX009 (ip), vehicle: saline) 108 % of control [middle of 5 runs]; under setting [5], 123 % of control; (endpoint: mean survival time, dose: 300.0 mg/kg/injection, schedule: Q04DX003 (ip), vehicle: saline) 119 % of control; (endpoint: mean survival time, dose: 400.0 mg/kg/injection, schedule: Q01DX009 (ip), vehicle: saline) 121 % of control and 105 % of control. Moreover, the T/C under setting [6] is 178 % of control.
Consider `CN(C)CC1CCCCC(CN(C)C)C1=O` (stereo unspecified), for which the T/C under setting [7] is 120 % of control, the T/C under setting [8] is 104 % of control and the T/C under setting [9] is 104 % of control.
As for `Nc1ccc(NC(=O)Nc2ccc(N)cc2)cc1`, the T/C is 96 % of control (endpoint: mean survival time, dose: 3.0 mg/kg/injection, schedule: Q01DX009 (ip), vehicle: saline sonified); 94 % of control (endpoint: mean survival time, dose: 6.0 mg/kg/injection, schedule: Q01DX009 (ip), vehicle: saline sonified); 96 % of control (endpoint: mean survival time, dose: 12.0 mg/kg/injection, schedule: Q01DX009 (ip), vehicle: saline sonified); 104 % of control (endpoint: mean survival time, dose: 12.5 mg/kg/injection, schedule: Q04DX003 (ip), vehicle: saline with Tween-80).
Consider `COC1OC2COC(c3ccccc3)OC2C(O)C1O` (stereo unspecified), for which the T/C is, setting by setting: (endpoint: mean survival time, dose: 100.0 mg/kg/injection, schedule: Q04DX003 (ip), vehicle: Klucel (hydroxypropylcellulose) (HPC)) 105 % of control; (endpoint: mean survival time, dose: 200.0 mg/kg/injection, schedule: Q04DX003 (ip), vehicle: Klucel (hydroxypropylcellulose) (HPC)) 95 % of control; (endpoint: mean survival time, dose: 400.0 mg/kg/injection, schedule: Q04DX003 (ip), vehicle: Klucel (hydroxypropylcellulose) (HPC)) 95 % of control.
On to `CN(C)CCCNC(=O)c1ccc(N)cc1`, for which the T/C is, setting by setting: (endpoint: mean survival time, dose: 100.0 mg/kg/injection, schedule: Q04DX002 (ip), vehicle: saline) 102 % of control; (endpoint: mean survival time, dose: 200.0 mg/kg/injection, schedule: Q04DX002 (ip), vehicle: saline) 105 % of control; (endpoint: mean survival time, dose: 400.0 mg/kg/injection, schedule: Q04DX002 (ip), vehicle: saline) 97 % of control.
In the case of `NNC(=O)COc1ccc(Cl)cc1Cl`, the T/C reads like this: under setting [10], 102 % of control; under setting [11], 105 % of control; under setting [12], 104 % of control.
As for `Cc1cccc2c1NC(=O)C2=O`, the T/C by setting is: (endpoint: median survival time, dose: 100.0 mg/kg/injection, schedule: Q04DX002 (ip), vehicle: saline with Tween-80) 94 % of control; (endpoint: median survival time, dose: 400.0 mg/kg/injection, schedule: Q04DX002 (ip), vehicle: saline with Tween-80) 105 % of control.
On to `CCCCC/C(C)=C(/C#N)C(=O)OCC`, for which the T/C under setting [7] was 97 % of control, the T/C under setting [8] was 96 % of control and the T/C under setting [9] is 97 % of control.
For `O=C(COc1ccccc1)NCc1ccc(Cl)cc1`, the T/C by setting is: under setting [13], 98 % of control; under setting [14], 98 % of control; under setting [15], 96 % of control.
On to `O=Cc1cc(Cl)cc(Cl)c1O.O=Cc1cc(Cl)cc(Cl)c1O.[Co]`, for which the T/C was 90 % of control (endpoint: mean survival time, dose: 50.0 mg/kg/injection, schedule: Q04DX003 (ip), vehicle: saline with Tween-80); 100 % of control under setting [3]; 89 % of control under setting [13]; 96 % of control under setting [4]; 94 % of control under setting [14]; 100 % of control under setting [5]. In addition, the T/C under setting [15] is 103 % of control and the T/C under setting [6] is 96 % of control.
As to `O=[N+]([O-])c1ccc(/C=C/C=C/c2ccccc2)cc1`, the T/C by setting is: under setting [13], 101 % of control; under setting [14], 98 % of control; under setting [15], 95 % of control.
For `O=C(NCCCCC(Cl)C(=O)O)c1ccccc1` (stereo unspecified), the T/C runs as follows: under setting [12], 98 % of control; (endpoint: mean survival time, dose: 200.0 mg/kg/injection, schedule: Q01DX009 (ip), vehicle: saline with Tween-80) 100 % of control; (endpoint: mean survival time, dose: 400.0 mg/kg/injection, schedule: Q01DX009 (ip), vehicle: saline with Tween-80) 100 % of control.
`CN1CCC(O)(c2ccccc2C2=NC(C)(C)CO2)CC1`: the T/C was 96 % of control (endpoint: mean survival time, dose: 50.0 mg/kg/injection, schedule: Q04DX002 (ip), vehicle: saline with Tween-80); 103 % of control under setting [16]; 101 % of control under setting [1]; 102 % of control (endpoint: mean survival time, dose: 200.0 mg/kg/injection, schedule: Q01DX001 (ip), vehicle: saline with Tween-80); 108 % of control under setting [2].
As for `N=C(N)SCCCSC(=N)N`, the T/C reads like this: under setting [10], 101 % of control; under setting [11], 96 % of control; under setting [3], 98 % of control; under setting [12], 90 % of control; under setting [4], 104 % of control; under setting [5], 102 % of control.
As to `c1ccc(C2=Nc3ccccc3C(c3ccccc3)=Nc3ccccc32)cc1`, the T/C runs as follows: under setting [13], 109 % of control; under setting [14], 91 % of control; under setting [15], 101 % of control.
`CCCCCCCCCCCCCCCCCCSc1ccc(Br)cc1`: the T/C was 92 % of control under setting [16] and 86 % of control (endpoint: mean survival time, dose: 400.0 mg/kg/injection, schedule: Q01DX001 (ip), vehicle: saline with Tween-80).
